Patent publication US20160303056A1, “FASTING MIMICKING DIET (FMD) AND GLUCOSE LOWERING DRUGS PROTECT NORMAL CELLS AND GENERATE CANCER SENSITIZING CONDITIONS IN RESPONSE TO STANDARD AND HIGH GLUCOSE CONDITIONS INDUCED BY RAPAMYCIN AND DEXAMETHASONE” (UNIVERSITY OF SOUTHERN CALIFORNIA, priority 2015, published 2016)

Experiments:
[1] = Blood glucose levels in mice injected ip with metformin; format: in vivo, mouse; settings: metformin 50 mg/kg ip, saline for control mice (FIG. 1E)
C57BL/6 mice = settings: mouse, in vivo
[2] = Circulating glucose levels in mice given rapamycin or dexamethasone, with or without insulin, STS or FMD; format: in vivo, mouse (C57BL/6); settings: rapamycin or dexamethasone ip daily for 14 days, compared with ad lib (FIG. 1B)

CN(C)C(=N)NC(=N)N [Metformin, N,N-Dimethylimidodicarbonimidic diamide]
circulating glucose levels [1]: reducing circulating glucose levels

C[C@@H]1C[C@H]2[C@@H]3CCC4=CC(=O)C=C[C@]4(C)[C@@]3(F)[C@@H](O)C[C@]2(C)[C@@]1(O)C(=O)CO [dexamethasone]
sensitization of mice to chemotherapy (mortality) (C57BL/6 mice): increased mortality
circulating glucose levels [2]: caused an increase in glucose levels

CO[C@H]1C[C@@H]2CC[C@@H](C)[C@@](O)(O2)C(=O)C(=O)N2CCCC[C@H]2C(=O)O[C@H]([C@H](C)C[C@@H]2CC[C@@H](O)[C@H](OC)C2)CC(=O)[C@H](C)/C=C(\C)[C@@H](O)[C@@H](OC)C(=O)[C@H](C)C[C@H](C)/C=C/C=C/C=C/1C [rapamycin]
sensitization of mice to chemotherapy (mortality) (C57BL/6 mice): increased mortality
circulating glucose levels [2]: caused an increase in glucose levels
